Laboratory results: ChEMBL document CHEMBL1614632, “Trend analysis of a database of intravenous pharmacokinetic parameters in humans for 670 drug compounds” (Drug Metab Dispos, 2008)

Columns and labels:
clinical [1] = conditions: human, in vivo, iv, Vdss
clinical [2] = conditions: human, in vivo, iv
clinical [3] = conditions: human, in vivo, iv; remark: listed apart in the source
clinical [4] = conditions: human, in vivo, iv, CL
clinical [5] = conditions: human, in vivo, iv, t1/2

## CC1(C)S[C@@H]2[C@H](NC(=O)[C@H](C(=O)O)c3ccsc3)C(=O)N2[C@H]1C(=O)O [TICARCILLIN]
Clinical [1]
  Vd: 0.16 L/kg
Clinical [2]
  MRT: 1.5 h
Clinical [3]
  fraction unbound: 0.55
Clinical [4]
  clearance: 1.8 mL/min/kg
Clinical [5]
  half-life: 1 h

## CN(C)CCc1c[nH]c2ccc(CS(=O)(=O)N3CCCC3)cc12 [ALMOTRIPTAN]
Clinical [1]
  Vd: 2.2 L/kg
Clinical [2]
  MRT: 4.2 h
Clinical [3]
  fraction unbound: 0.6
Clinical [4]
  clearance: 8.9 mL/min/kg
Clinical [5]
  half-life: 3.4 h

## Cc1ccc(-c2ncc(Cl)cc2-c2ccc(S(C)(=O)=O)cc2)cn1 [ETORICOXIB]
Clinical [1]
  Vd: 1.5 L/kg
Clinical [2]
  MRT: 32 h
Clinical [3]
  fraction unbound: 0.081
Clinical [4]
  clearance: 0.79 mL/min/kg
Clinical [5]
  half-life: 26 h

## CC1(C)S[C@@H]2[C@H](NC(=O)[C@H](NC(=O)N3CCN(S(C)(=O)=O)C3=O)c3ccccc3)C(=O)N2[C@H]1C(=O)O [MEZLOCILLIN]
Clinical [1]
  Vd: 0.09 L/kg
Clinical [2]
  MRT: 0.71 h
Clinical [3]
  fraction unbound: 0.7
Clinical [4]
  clearance: 2.1 mL/min/kg
Clinical [5]
  half-life: 1.2 h

## CC1(C)S[C@@H]2[C@H](NC(=O)[C@H](NC(=O)N3CCNC3=O)c3ccccc3)C(=O)N2[C@H]1C(=O)O [AZLOCILLIN]
Clinical [1]
  Vd: 0.26 L/kg
Clinical [2]
  MRT: 1.7 h
Clinical [3]
  fraction unbound: 0.65
Clinical [4]
  clearance: 2.5 mL/min/kg
Clinical [5]
  half-life: 1.2 h

## CO/N=C(\C(=O)N[C@@H]1C(=O)N2C(C(=O)O)=CCS[C@H]12)c1csc(N)n1 [CEFTIZOXIME]
Clinical [1]
  Vd: 0.2 L/kg
Clinical [2]
  MRT: 1.6 h
Clinical [3]
  fraction unbound: 0.72
Clinical [4]
  clearance: 2.1 mL/min/kg
Clinical [5]
  half-life: 1.5 h

## CC1(C)O[C@@H]2C[C@H]3[C@@H]4CCC5=CC(=O)C=C[C@]5(C)[C@@]4(F)[C@@H](O)C[C@]3(C)[C@]2(C(=O)CO)O1 [TRIAMCINOLONE ACETONIDE]
Clinical [1]
  Vd: 1.4 L/kg
Clinical [2]
  MRT: 2.5 h
Clinical [3]
  fraction unbound: 0.2
Clinical [4]
  clearance: 9.4 mL/min/kg
Clinical [5]
  half-life: 2.4 h

## CCCC1C(=O)N2C(N(C)C)=Nc3ccc(C)cc3N2C1=O (stereo not given) [APAZONE]
Clinical [1]
  Vd: 0.12 L/kg
Clinical [2]
  MRT: 14 h
Clinical [3]
  fraction unbound: 0.004
Clinical [4]
  clearance: 0.14 mL/min/kg
Clinical [5]
  half-life: 17 h

## CCOC(=O)C1(c2ccccc2)CCC=CC1N(C)C (stereo not given) [TILIDINE]
Clinical [1]
  Vd: 4 L/kg
Clinical [2]
  MRT: 4.2 h
Clinical [3]
  fraction unbound: 0.21
Clinical [4]
  clearance: 16 mL/min/kg
Clinical [5]
  half-life: 5 h

## CCCc1cc(=O)[nH]c(=S)[nH]1 [PROPYLTHIOURACIL]
Clinical [1]
  Vd: 0.34 L/kg
Clinical [2]
  MRT: 1.8 h
Clinical [3]
  fraction unbound: 0.18
Clinical [4]
  clearance: 3.1 mL/min/kg
Clinical [5]
  half-life: 1.3 h

## CC(=O)[C@H]1CC[C@H]2[C@@H]3CC[C@@H]4C[C@H](O)CC[C@]4(C)[C@H]3CC[C@]12C [ELTANOLONE]
Clinical [1]
  Vd: 2 L/kg
Clinical [2]
  MRT: 1.5 h
Clinical [3]
  fraction unbound: 0.01
Clinical [4]
  clearance: 22 mL/min/kg
Clinical [5]
  half-life: 4.7 h

## CC(C)(C)NCC(O)COc1cccc2c1CC(O)C(O)C2 (stereo not given) [NADOLOL]
Clinical [1]
  Vd: 1.9 L/kg
Clinical [2]
  MRT: 11 h
Clinical [3]
  fraction unbound: 0.14
Clinical [4]
  clearance: 2.9 mL/min/kg
Clinical [5]
  half-life: 9.2 h

## NC(=O)OC[C@@H]1[C@H](NC(=O)/C(=N\OCC(=O)O)c2csc(N)n2)C(=O)N1S(=O)(=O)O [CARUMONAM]
Clinical [1]
  Vd: 0.18 L/kg
Clinical [2]
  MRT: 2 h
Clinical [3]
  fraction unbound: 0.72
Clinical [4]
  clearance: 1.5 mL/min/kg
Clinical [5]
  half-life: 1.6 h

## CC(C)c1cccc(C(C)C)c1O [PROPOFOL]
Clinical [1]
  Vd: 4.7 L/kg
Clinical [2]
  MRT: 2.2 h
Clinical [3]
  fraction unbound: 0.016
Clinical [4]
  clearance: 36 mL/min/kg
Clinical [5]
  half-life: 3.2 h

## CN(C)C(=O)CCS[C@H](SCCC(=O)O)c1cccc(/C=C/c2ccc3ccc(Cl)cc3n2)c1
Clinical [1]
  Vd: 0.11 L/kg
Clinical [2]
  MRT: 2.7 h
Clinical [3]
  fraction unbound: 0.0004
Clinical [4]
  clearance: 0.68 mL/min/kg
Clinical [5]
  half-life: 2.3 h

## Nc1ccc(O)c(C(=O)O)c1 [MESALAMINE]
Clinical [1]
  Vd: 0.33 L/kg
Clinical [2]
  MRT: 0.59 h
Clinical [3]
  fraction unbound: 0.39
Clinical [4]
  clearance: 9.3 mL/min/kg
Clinical [5]
  half-life: 0.61 h

## COc1ccc2cc1Oc1cc3c(cc1OC)CC[N+](C)(C)[C@H]3Cc1ccc(cc1)Oc1c(OC)c(OC)cc3c1[C@@H](C2)[N+](C)(C)CC3.[I-].[I-] [METOCURINE IODIDE]
Clinical [1]
  Vd: 0.4 L/kg
Clinical [2]
  MRT: 5.6 h
Clinical [3]
  fraction unbound: 0.65
Clinical [4]
  clearance: 1.2 mL/min/kg
Clinical [5]
  half-life: 5.1 h

## COc1ccc(CCNCC(O)COc2cccc(C)c2)cc1OC (stereo not given) [BEVANTOLOL]
Clinical [1]
  Vd: 0.67 L/kg
Clinical [2]
  MRT: 2 h
Clinical [3]
  fraction unbound: 0.015
Clinical [4]
  clearance: 5.5 mL/min/kg
Clinical [5]
  half-life: 1.9 h

## CN(C)/N=N/c1[nH]cnc1C(N)=O [DACARBAZINE]
Clinical [1]
  Vd: 1.2 L/kg
Clinical [2]
  MRT: 7.8 h
Clinical [3]
  fraction unbound: 1
Clinical [4]
  clearance: 2.6 mL/min/kg
Clinical [5]
  half-life: 6.2 h

## COc1ccc(Cl)cc1[C@]1(F)C(=O)Nc2cc(C(F)(F)F)ccc21 [FLINDOKALNER]
Clinical [1]
  Vd: 10 L/kg
Clinical [2]
  MRT: 11 h
Clinical [3]
  fraction unbound: 0.0038
Clinical [4]
  clearance: 15 mL/min/kg
Clinical [5]
  half-life: 37 h

## C#C[C@]1(O)CC[C@H]2[C@@H]3CCC4=CC(=O)CC[C@@H]4[C@H]3CC[C@@]21CC [LEVONORGESTREL]
Clinical [1]
  Vd: 1.5 L/kg
Clinical [2]
  MRT: 14 h
Clinical [3]
  fraction unbound: 0.025
Clinical [4]
  clearance: 1.8 mL/min/kg
Clinical [5]
  half-life: 9.4 h

## CC(Oc1ccccc1)C(=O)N[C@@H]1C(=O)N2[C@@H]1SC(C)(C)[C@@H]2C(=O)O (stereo not given in full) [PHENETHICILLIN]
Clinical [1]
  Vd: 0.3 L/kg
Clinical [2]
  MRT: 1.2 h
Clinical [3]
  fraction unbound: 0.25
Clinical [4]
  clearance: 4.2 mL/min/kg
Clinical [5]
  half-life: 0.91 h

## CCC(=O)O[C@]1(C(=O)SCF)[C@H](C)C[C@H]2[C@@H]3C[C@H](F)C4=CC(=O)C=C[C@]4(C)[C@@]3(F)[C@@H](O)C[C@@]21C [FLUTICASONE PROPIONATE]
Clinical [1]
  Vd: 3.6 L/kg
Clinical [2]
  MRT: 3.9 h
Clinical [3]
  fraction unbound: 0.1
Clinical [4]
  clearance: 17 mL/min/kg
Clinical [5]
  half-life: 6 h

## COCC(=O)Nc1c(I)c(C(=O)NCC(O)CO)c(I)c(C(=O)N(C)CC(O)CO)c1I (stereo not given) [IOPROMIDE]
Clinical [1]
  Vd: 0.22 L/kg
Clinical [2]
  MRT: 2.6 h
Clinical [3]
  fraction unbound: 0.99
Clinical [4]
  clearance: 1.4 mL/min/kg
Clinical [5]
  half-life: 2.6 h

## CC(C)N(CCC(C(N)=O)(c1ccccc1)c1ccccn1)C(C)C (stereo not given) [DISOPYRAMIDE]
Clinical [1]
  Vd: 0.52 L/kg
Clinical [2]
  MRT: 9.6 h
Clinical [3]
  fraction unbound: 0.16
Clinical [4]
  clearance: 0.9 mL/min/kg
Clinical [5]
  half-life: 7 h

## CC(NCCc1ccc(O)cc1)C(O)c1ccc(O)cc1 (stereo not given) [RITODRINE]
Clinical [1]
  Vd: 4.4 L/kg
Clinical [2]
  MRT: 2.4 h
Clinical [3]
  fraction unbound: 0.64
Clinical [4]
  clearance: 31 mL/min/kg
Clinical [5]
  half-life: 2.6 h

## NS(=O)(=O)c1cc(C(=O)O)cc(N2CCCC2)c1Oc1ccccc1 [PIRETANIDE]
Clinical [1]
  Vd: 0.17 L/kg
Clinical [2]
  MRT: 0.91 h
Clinical [3]
  fraction unbound: 0.058
Clinical [4]
  clearance: 3.1 mL/min/kg
Clinical [5]
  half-life: 1.3 h

## COc1ccc2c(c1)c(CC(=O)O)c(C)n2C(=O)c1ccc(Cl)cc1 [INDOMETHACIN]
Clinical [1]
  Vd: 0.096 L/kg
Clinical [2]
  MRT: 1.2 h
Clinical [3]
  fraction unbound: 0.01
Clinical [4]
  clearance: 1.3 mL/min/kg
Clinical [5]
  half-life: 1.4 h

## Nc1c(CC(=O)O)cccc1C(=O)c1ccc(Br)cc1 [BROMFENAC]
Clinical [1]
  Vd: 0.11 L/kg
Clinical [2]
  MRT: 1.5 h
Clinical [3]
  fraction unbound: 0.0011
Clinical [4]
  clearance: 1.3 mL/min/kg
Clinical [5]
  half-life: 2.6 h

## O=C1CN=C(c2ccccc2Cl)c2cc(Cl)ccc2N1 [DELORAZEPAM]
Clinical [1]
  Vd: 2.2 L/kg
Clinical [2]
  MRT: 220 h
Clinical [3]
  fraction unbound: 0.051
Clinical [4]
  clearance: 0.17 mL/min/kg
Clinical [5]
  half-life: 200 h

## C=C[C@@]1(O)C[N+]2(C)CC[C@H]1C[C@@H]2[C@@H](O)c1ccnc2ccc(OC)cc12
Clinical [1]
  Vd: 6.8 L/kg
Clinical [2]
  MRT: 9.4 h
Clinical [3]
  fraction unbound: 0.47
Clinical [4]
  clearance: 12 mL/min/kg
Clinical [5]
  half-life: 6.7 h

## CN[C@@H](C)Cc1ccccc1 [METHAMPHETAMINE]
Clinical [1]
  Vd: 4.3 L/kg
Clinical [2]
  MRT: 16 h
Clinical [3]
  fraction unbound: 0.85
Clinical [4]
  clearance: 4.4 mL/min/kg
Clinical [5]
  half-life: 12 h

## C[C@@H](O)[C@H]1C(=O)N2C(C(=O)[O-])=C(SC3Cn4cnc[n+]4C3)[C@H](C)[C@H]12 (stereo not given in full) [BIAPENEM]
Clinical [1]
  Vd: 0.2 L/kg
Clinical [2]
  MRT: 1.3 h
Clinical [3]
  fraction unbound: 0.92
Clinical [4]
  clearance: 2.5 mL/min/kg
Clinical [5]
  half-life: 1.1 h

## CO/N=C(\C(=O)N[C@@H]1C(=O)N2C(C(=O)O)=C(COC(N)=O)CS[C@H]12)c1ccco1 [CEFUROXIME]
Clinical [1]
  Vd: 0.15 L/kg
Clinical [2]
  MRT: 1.1 h
Clinical [3]
  fraction unbound: 0.12
Clinical [4]
  clearance: 2.2 mL/min/kg
Clinical [5]
  half-life: 1.1 h
